Source: US20220062240A1, “METHODS OF TREATING CANCER USING A CLK INHIBITOR” (BioSplice Therapeutics, Inc., priority 2018, published 2022)
Where two headings read alike, the source gives them in different places.

Tests used:
CLK2 = target: T1, CLK2 (Homo sapiens, UniProt P49760); experiment: CLK2 kinase activity assay (Z-lyte, Ser/Thr 6 peptide); format: biochemical; conditions: recombinant CLK2 kinase, ATP 60 μM; read-out: EC50
T1 construct: purchased Thermo Fisher (Life Technologies), Z'-LYTE Kinase Assay Kits
T1 sequence (P49760 whole entry): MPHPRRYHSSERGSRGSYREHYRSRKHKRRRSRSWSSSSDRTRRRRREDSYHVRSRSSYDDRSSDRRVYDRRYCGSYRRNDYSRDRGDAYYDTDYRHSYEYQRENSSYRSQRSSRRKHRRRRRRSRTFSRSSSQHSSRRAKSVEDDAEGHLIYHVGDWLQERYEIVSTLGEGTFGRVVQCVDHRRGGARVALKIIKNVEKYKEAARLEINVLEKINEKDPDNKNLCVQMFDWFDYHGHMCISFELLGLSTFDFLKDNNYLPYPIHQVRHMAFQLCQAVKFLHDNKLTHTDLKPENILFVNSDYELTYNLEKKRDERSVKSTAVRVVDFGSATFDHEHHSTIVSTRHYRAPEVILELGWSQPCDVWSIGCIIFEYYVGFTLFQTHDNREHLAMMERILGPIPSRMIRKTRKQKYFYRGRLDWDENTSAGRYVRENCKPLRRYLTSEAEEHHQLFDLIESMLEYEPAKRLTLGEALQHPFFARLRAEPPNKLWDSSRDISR
Method: All reactions were performed in duplicate.

BT-549 = experiment: CellTiter-Glo Viability Assay, breast cancer; format: cell-based; conditions: Homo sapiens, 96 h; BT-549, breast cancer, four days; read-out: EC50
CAMA1 = experiment: CellTiter-Glo Viability Assay, breast cancer; format: cell-based; conditions: Homo sapiens, CAMA-1, 96 h; CAMA1, breast cancer, four days; read-out: EC50
DU4475 = experiment: CellTiter-Glo Viability Assay, breast cancer; format: cell-based; conditions: Homo sapiens, DU-4475, 96 h; DU4475, breast cancer, four days; read-out: EC50
HCC1599 = experiment: CellTiter-Glo Viability Assay, breast cancer; format: cell-based; conditions: Homo sapiens, 96 h; HCC1599, breast cancer, four days; read-out: EC50
MCF7 = experiment: CellTiter-Glo Viability Assay, breast cancer; format: cell-based; conditions: Homo sapiens, 96 h; MCF7, breast cancer, four days; read-out: EC50
MDA-MB-231-Luc = experiment: CellTiter-Glo Viability Assay, breast cancer; format: cell-based; conditions: Homo sapiens, 96 h; MDA-MB-231-Luc, breast cancer, four days; read-out: EC50
T47D = experiment: CellTiter-Glo Viability Assay, breast cancer; format: cell-based; conditions: Homo sapiens, 96 h, breast cancer, four days, read-out: EC50
ZR-75-1 = experiment: CellTiter-Glo Viability Assay, breast cancer; format: cell-based; conditions: Homo sapiens, 96 h; ZR-75-1, breast cancer, four days; read-out: EC50
all 50 cell lines = experiment: CellTiter-Glo Viability Assay, average across all cell lines; format: cell-based; conditions: Homo sapiens; across all 50 cell lines; read-out: average EC50 for inhibition of cancer cell proliferation
Method in brief: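 Cancer cell lines of several tumour types plated at 300-3,000 cells/well and exposed to compound in duplicate for four days at 37° C, 5% CO2, with DMSO-treated controls. Viability read by CellTiter-Glo luminescence (ATP content); EC50 derived from dose-response curves.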

[1] = tested on: colorectal cancer (6 cell lines); experiment: CellTiter-Glo Viability Assay, colorectal cancer; format: cell-based; conditions: Homo sapiens, inhibition of cancer cell proliferation
[2] = tested on: haematopoietic & lymphoid tumors (13 cell lines); experiment: CellTiter-Glo Viability Assay, haematopoietic & lymphoid tumors; format: cell-based; conditions: Homo sapiens, inhibition of cancer cell proliferation
[3] = tested on: liver cancer (3 cell lines); experiment: CellTiter-Glo Viability Assay, liver cancer; format: cell-based; conditions: Homo sapiens, inhibition of cancer cell proliferation
[4] = tested on: lung cancer (4 cell lines); experiment: CellTiter-Glo Viability Assay, lung cancer; format: cell-based; conditions: Homo sapiens, inhibition of cancer cell proliferation
[5] = tested on: ovarian cancer (4 cell lines); experiment: CellTiter-Glo Viability Assay, ovarian cancer; format: cell-based; conditions: Homo sapiens, inhibition of cancer cell proliferation
[6] = tested on: pancreatic cancer (8 cell lines); experiment: CellTiter-Glo Viability Assay, pancreatic cancer; format: cell-based; conditions: Homo sapiens, inhibition of cancer cell proliferation
[7] = tested on: prostate cancer (5 cell lines); experiment: CellTiter-Glo Viability Assay, prostate cancer; format: cell-based; conditions: Homo sapiens
CLK3 = CLK3 (Homo sapiens, UniProt P49761); experiment: CLK3 kinase activity assay (Z-lyte, Ser/Thr 18 peptide)
Sequence of CLK3 (P49761 whole entry): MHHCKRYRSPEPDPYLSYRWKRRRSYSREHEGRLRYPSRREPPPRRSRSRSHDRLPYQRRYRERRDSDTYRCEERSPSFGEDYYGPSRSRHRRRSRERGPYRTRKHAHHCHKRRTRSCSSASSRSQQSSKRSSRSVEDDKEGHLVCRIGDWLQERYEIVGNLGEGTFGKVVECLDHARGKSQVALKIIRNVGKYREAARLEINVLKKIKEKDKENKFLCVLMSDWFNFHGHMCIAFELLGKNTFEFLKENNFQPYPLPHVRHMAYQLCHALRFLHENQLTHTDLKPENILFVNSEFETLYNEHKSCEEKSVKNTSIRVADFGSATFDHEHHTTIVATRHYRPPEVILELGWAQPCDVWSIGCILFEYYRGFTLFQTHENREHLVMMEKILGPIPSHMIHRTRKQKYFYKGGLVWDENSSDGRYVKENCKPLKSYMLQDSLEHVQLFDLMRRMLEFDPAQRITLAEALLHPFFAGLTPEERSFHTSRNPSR

CN1CCN(c2cc(Nc3ncc4c(-c5ccc6ncccc6c5)c[nH]c4n3)ccn2)CC1 [Compound 67]
EC50 (CLK2): 2.4 nM | EC50 (BT-549): 731 nM | EC50 (CAMA1): 1340 nM | EC50 (DU4475): 247 nM | EC50 (HCC1599): 38 nM | EC50 (MCF7): 3700 nM | EC50 (MDA-MB-231-Luc): 2700 nM | EC50 (T47D): 4960 nM | EC50 (ZR-75-1): 2920 nM | EC50 (all 50 cell lines): 1070 nM | EC50 ([1]; HCT-116, HCT116 cell line, read-out: Colorectal cancer, EC50 (μM) HCT116): 0.318 µM | EC50 ([1]; HT-29, HT29 cell line, read-out: Colorectal cancer, EC50 (μM) HT29): 1.2 µM | EC50 ([1]; SW-620, SW620 cell line, read-out: Colorectal cancer, EC50 (μM) SW620): 0.156 µM | EC50 ([1]; DLD-1 cell line, read-out: Colorectal cancer, EC50 (μM) DLD-1): 0.264 µM | EC50 ([1]; SW48 cell line, read-out: Colorectal cancer, EC50 (μM) SW48): 0.147 µM | EC50 ([1]; SW480 cell line, read-out: Colorectal cancer, EC50 (μM) SW480): 0.644 µM | EC50 ([2]; DND41, DND-41 cell line, read-out: Haematopoietic & Lymphoid tumors, EC50 (μM) DND-41): 0.221 µM | EC50 ([2]; MV4-11, MV-4-11 cell line, read-out: Haematopoietic & Lymphoid tumors, EC50 (μM) MV-4-11): 0.032 µM | EC50 ([2]; Rec1, REC-1 cell line, read-out: Haematopoietic & Lymphoid tumors, EC50 (μM) REC-1): 0.149 µM | EC50 ([2]; SU-DHL-4, SUDHL4 cell line, read-out: Haematopoietic & Lymphoid tumors, EC50 (μM) SUDHL4): 0.241 µM | EC50 ([2]; HL-60 cell line, read-out: Haematopoietic & Lymphoid tumors, EC50 (μM) HL-60): 1.54 µM | EC50 ([2]; JM1 cell line, read-out: Haematopoietic & Lymphoid tumors, EC50 (μM) JM1): 0.062 µM | EC50 ([2]; JURKAT, Clone E6-1 cell line, read-out: Haematopoietic & Lymphoid tumors, EC50 (μM) JURKAT, Clone E6-1): 0.298 µM | EC50 ([2]; JeKo-1 cell line, read-out: Haematopoietic & Lymphoid tumors, EC50 (μM) JeKo-1): 0.139 µM | EC50 ([2]; KASUMI-1 cell line, read-out: Haematopoietic & Lymphoid tumors, EC50 (μM) KASUMI-1): 0.11 µM | EC50 ([2]; Loucy cell line, read-out: Haematopoietic & Lymphoid tumors, EC50 (μM) Loucy): 0.28 µM | EC50 ([2]; MOLT-4 cell line, read-out: Haematopoietic & Lymphoid tumors, EC50 (μM) MOLT-4): 0.381 µM | EC50 ([2]; TF-1 cell line, read-out: Haematopoietic & Lymphoid tumors, EC50 (μM) TF-1): 0.789 µM | EC50 ([2]; TOLEDO cell line, read-out: Haematopoietic & Lymphoid tumors, EC50 (μM) TOLEDO): 0.108 µM | EC50 ([3]; SNU-398, SNU398 cell line, read-out: Liver cancer, EC50 SNU398): 71 nM | EC50 ([3]; HEPG2 cell line, read-out: Liver cancer, EC50 HEPG2): 3290 nM | EC50 ([3]; PLC/PRF/5 cell line, read-out: Liver cancer, EC50 PLC/PRF/5): 3350 nM | EC50 ([4]; A-427, A427 cell line, read-out: Lung cancer, EC50 (μM) A427): 0.502 µM | EC50 ([4]; HCC78, HCC-78 cell line, read-out: Lung cancer, EC50 (μM) HCC-78): 1.44 µM | EC50 ([4]; NCI-H460 cell line, read-out: Lung cancer, EC50 (μM) NCI-H460): 0.919 µM | EC50 ([4]; NCI-H522 cell line, read-out: Lung cancer, EC50 (μM) NCI-H522): 0.097 µM | EC50 ([5]; PA-1, PA1 cell line, read-out: Ovarian cancer, EC50 (μM) PA1): 0.768 µM | EC50 ([5]; TOV112D, TOV-112D cell line, read-out: Ovarian cancer, EC50 (μM) TOV-112D): 0.421 µM | EC50 ([5]; OV-90 cell line, read-out: Ovarian cancer, EC50 (μM) OV-90): 2.86 µM | EC50 ([5]; OVCAR-3 cell line, read-out: Ovarian cancer, EC50 (μM) OVCAR-3): 0.291 µM | EC50 ([6]; BXPC-3, BxPC3 cell line, read-out: Pancreatic cancer, EC50 BxPC3): 660 nM | EC50 ([6]; CAPAN-1, Capan1 cell line, read-out: Pancreatic cancer, EC50 Capan1): 583 nM | EC50 ([6]; Capan-2, Capan2 cell line, read-out: Pancreatic cancer, EC50 Capan2): 1120 nM | EC50 ([6]; MIA PaCa-2 cell line, read-out: Pancreatic cancer, EC50 MIA PaCa-2): 267 nM | EC50 ([6]; PANC 05.04 cell line, read-out: Pancreatic cancer, EC50 PANC 05.04): 3470 nM | EC50 ([6]; PANC-1 cell line, read-out: Pancreatic cancer, EC50 PANC-1): 1900 nM | EC50 ([6]; UPAFII cell line, read-out: Pancreatic cancer, EC50 UPAFII): 511 nM | EC50 ([7]; DU-145, read-out: Prostate cancer EC50 Du-145): 654 nM | EC50 ([7]; PC-3, PC3 cell line, inhibition of cancer cell proliferation, read-out: Prostate cancer EC50 PC3): 860 nM | EC50 ([7]; 22Rv1 cell line, inhibition of cancer cell proliferation, read-out: Prostate cancer EC50 22Rv1): 348 nM | EC50 ([7]; LNCap clone FGC cell line, inhibition of cancer cell proliferation, read-out: Prostate cancer EC50 LNCap clone FGC): 4690 nM | EC50 ([7]; VCaP (Sigma) cell line, inhibition of cancer cell proliferation, read-out: Prostate cancer EC50 VCaP (Sigma)): 756 nM | EC50 (CLK3): 10.3 nM
